According to ChEMBL document CHEMBL4385649, “Cyclic heptapeptides from the soil-derived fungus Clonostachys rosea” (Bioorg Med Chem, 2019):
pIC50: −log10 of the molar value. Active and inactive are the calls of the source. The calls are words filed in the database; no cut-off is given here.

Columns and labels:
Assay type in all cases: functional, cell-based
L5178Y [1] = test: Cytotoxicity against mouse L5178Y cells assessed as reduction in cell viability at 10 uM by MTT assay
A2780 [2] = test: Cytotoxicity against human A2780 cells assessed as reduction in cell viability at 10 uM by MTT assay
A2780 [3] = test: Cytotoxicity against human A2780 cells assessed as reduction in cell viability by MTT assay
L5178Y [4] = test: Cytotoxicity against mouse L5178Y cells assessed as reduction in cell viability by MTT assay

CC(C)C[C@H]1NC(=O)CNC(=O)CCNC(=O)[C@@H](Cc2c[nH]c3ccccc23)NC(=O)[C@H](C(C)C)NC(=O)[C@H](C(C)C)NC(=O)[C@H](C(C)C)NC1=O
Activity (L5178Y [1]): inactive
Activity (A2780 [2]): inactive

CC[C@H](C)[C@H]1NC(=O)[C@@H](CC(C)C)NC(=O)CNC(=O)CCNC(=O)[C@@H](Cc2c[nH]c3ccccc23)NC(=O)[C@H](C(C)C)NC(=O)[C@@H]([C@@H](C)CC)NC1=O
Activity (L5178Y [1]): inactive
Activity (A2780 [2]): inactive

CS[C@@]1(Cc2c[nH]c3ccccc23)NC(=O)[C@@](SC)(C(C)O)NC1=O (stereo not given in full)
Activity (L5178Y [1]): inactive
Activity (A2780 [2]): inactive

CCC/C=C/CCC(=O)[C@]1(O)C(=O)N[C@@H](C)[C@@H]1O
Activity (L5178Y [1]): inactive
Activity (A2780 [2]): inactive

C[C@@H](O)[C@@]12SS[C@]3(C(=O)N1C)[C@@H](O)C1(C45c6ccccc6N[C@@H]4N4C(=O)[C@]6([C@@H](C)O)SS[C@]4(C(=O)N6C)[C@H]5O)c4ccccc4N[C@@H]1N3C2=O (stereo not given in full)
pIC50 (A2780 [3]): 5.46
pIC50 (L5178Y [4]): 7.00

O=C1OC(O)C=C1O (stereo not given)
Activity (L5178Y [1]): inactive
Activity (A2780 [2]): inactive

CC[C@H](C)[C@H]1NC(=O)[C@@H](CC(C)C)NC(=O)CNC(=O)CCNC(=O)[C@@H](Cc2c[nH]c3ccccc23)NC(=O)[C@H](C(C)C)NC(=O)[C@H](C(C)C)NC1=O
pIC50 (L5178Y [4]): 5.39

C/C=C/C=C\[C@@H](O)[C@H]1CCC(=O)O1
Activity (L5178Y [1]): inactive
Activity (A2780 [2]): inactive
